Test results: BindingDB's records for PubMed 7891350 (Parke-Davis Pharmaceutical Research, 1995)

Assays:
[1] = molecular target: T1, Type-2 angiotensin II receptor (Rattus norvegicus, UniProt P35351)
T1 sequence (P35351 whole entry): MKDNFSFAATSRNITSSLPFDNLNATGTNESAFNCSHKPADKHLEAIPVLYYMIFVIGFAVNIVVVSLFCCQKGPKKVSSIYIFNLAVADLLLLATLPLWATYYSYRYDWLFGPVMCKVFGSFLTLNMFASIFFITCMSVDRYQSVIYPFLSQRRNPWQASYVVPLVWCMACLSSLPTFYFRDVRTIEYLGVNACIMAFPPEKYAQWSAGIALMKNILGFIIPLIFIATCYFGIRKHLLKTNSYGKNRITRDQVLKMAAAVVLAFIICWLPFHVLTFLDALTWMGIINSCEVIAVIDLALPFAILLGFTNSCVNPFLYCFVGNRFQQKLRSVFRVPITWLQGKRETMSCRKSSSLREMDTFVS

[2] = molecular target: T2, Type-1 angiotensin II receptor A (Rattus norvegicus, UniProt P25095)
T2 sequence (P25095 whole entry): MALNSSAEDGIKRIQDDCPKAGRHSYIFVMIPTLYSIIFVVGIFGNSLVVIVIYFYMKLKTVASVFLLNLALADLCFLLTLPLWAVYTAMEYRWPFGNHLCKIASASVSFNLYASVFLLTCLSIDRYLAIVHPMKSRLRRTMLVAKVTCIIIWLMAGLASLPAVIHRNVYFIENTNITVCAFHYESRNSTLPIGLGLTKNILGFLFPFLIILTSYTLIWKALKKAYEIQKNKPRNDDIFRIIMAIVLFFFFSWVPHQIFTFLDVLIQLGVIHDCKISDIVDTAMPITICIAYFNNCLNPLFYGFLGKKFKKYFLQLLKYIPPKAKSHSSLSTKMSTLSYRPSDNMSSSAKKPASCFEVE

| Ki [1] [µM] | Ki [2] [µM] | Structure (SMILES) |
| --- | --- | --- |
| > 10 | 0.0007 | CCc1nc2c(C)cc(C)nc2n1-c1ccc(-c2ccccc2-c2nnn[nH]2)cc1 [CAS_123856] |
| > 10 | – | CCCCc1ncc(/C=C(\Cc2cccs2)C(=O)O)n1Cc1ccc(C(=O)O)cc1 [(E)-3-[2-n-butyl-1-{(4-carboxyphenyl)methyl}-1H-imidazol-5-yl]-2-(2-thienyl)methyl-2-propenoic acid] |
| > 10 | – | CCCc1nc(-n2cccc2C(=O)C(F)(F)F)c(C(=O)O)n1Cc1ccc(-c2ccccc2-c2nn[nH]n2)cc1 |
